{"source": "patent US12459997B2", "about": "“Compounds and methods targeting interleukin-19” (Eli Lilly and Company, priority 2018, dated 2025)", "key": {"[1]": {"tested_on": "Ps0 patients", "assay": "Ps0 study in anti-IL-17 treatment groups: serum IL-19 and PASI", "type": "in vivo, human", "conditions": "for number of patients achieving at least PASI 75: title: week 16, head: Week 2", "from_the_text": "(§1) According to an exemplified embodiment, a sandwich ELISA assay for the sensitive detection of IL-19 is provided herein. According to an exemplified embodiment, a first IL-19 antibody (selected from Table 1, 2 or 3) is utilized as an IL-19 capture antibody and a second IL-19 antibody (selected from Table 1, 2 or 3) is utilized as an IL-19 reporter antibody. […] According to some embodiments, one milligram of the first IL-19 antibody (the capture antibody) is biotinylated using Pierce biotinylation kit (Cat #) and one milligram of the second IL-19 antibody (the reporter antibody) is labeled with ruthenium using MesoScale Discovery (MSD) kit for electrochemiluminescent (ECL) detection. According to such embodiment, labeled antibodies are evaluated using MALDI-TOF to ensure suitable labeling, and then diluted in 50% glycerol and stored at −20° C. prior to use.\n(§2) Streptavidin-coated 96-well MSD plates are washed three times with TBST (Tris buffered saline containing 10 mmol/L Tris pH 7.40, 150 mmol/L NaCl with 1 mL Tween 20/L) and then blocked with TBS-T plus 1% BSA for 1 hour at room temperature. Plates are again washed and wells are then incubated with biotinylated IL-19 capture antibody (1 mg/L) for 1 hour. Thereafter, plates are again washed prior to patient sample testing.\n(§3) During patient sample testing, a standard curve is generated using 50 μL of recombinant human IL-19 control standard (serially diluted IL-19 recombinant protein ranging from 100-0.0001 ng/L, and including a zero blank, in assay buffer of 50 mmol/L HEPES, pH 7.40, 150 mmol/L NaCl, 10 mL/L Triton X-100, 5 mmol/L EDTA, and 5 mmol/L EGTA). […] Patient samples (which, according to the present invention, may include blood, serum or plasma) are diluted 1:4 in assay buffer and added to respective wells. The plate is incubated overnight at 4° C. Following incubation, wells are aspirated and washed 3 times with TBST. Thereafter, 50 μL of ruthenium-labeled IL-19 detection antibody (0.5 mg/L) is added to the wells for a 1-hour incubation at room temperature. Following incubation, wells are aspirated and washed 3 times with TBST. Thereafter, 150 μl of 2×MSD read buffer is added. Ruthenium electrochemiluminescence in the wells is detected using a MSD Sector 6000 plate reader. Data is analyzed and IL-19 MSD immunoassay calibration curve fitting is performed using MesoScale Discovery software. SAS® software version 9.4 (PROC MIXED) is used for assessing treatment effects on IL-19 levels using a mixed effects model with an unstructured covariance matrix and log10 transformed IL-19 concentrations (SAS. Version 9.4 for UNIX; SAS Institute Inc.: Cary, N.C., 2016). Statistical analysis is generated with the ggplot and pROC packages using R version 3.3.3 statistical computing environment (www.R-project.org, Vienna, Austria, 2017).\nThe study includes five treatment group doses of: 10 mg (n=24), 25 mg (n=23), 75 mg (n=26), or 150 mg (n=28) of ixekizumab or placebo (n=24). Administration of all treatment doses is subcutaneous, and doses are administered starting at week 0 and every 2 weeks thereafter up to week 16 (inclusive)."}, "[2]": {"tested_on": "PsA patients", "assay": "PsA study in anti-IL-17 treatment groups: serum IL-19 and PASI", "type": "in vivo, human", "conditions": "for IL-19 (geometric mean) serum levels: subcutaneous", "from_the_text": "as §1, §2, §3\nA study of IL-19 levels, in serum of 309 PsA patients treated with a therapeutic antibody targeting IL-17, ixekizumab, is performed. The study includes three treatment groups: (i.) anti-IL-17 treatment group, administered ixekizumab 160 mg at baseline followed by an 80 mg dose administered every two weeks thereafter for 12 weeks (n=103); (ii.) anti-IL-17 treatment group, administered ixekizumab 160 mg at baseline followed by an 80 mg dose administered every four weeks thereafter for 12 weeks (n=107); or (iii.) placebo (n=105). Administration of all treatment doses is subcutaneous. […] Serum IL-19 concentration levels are presented in Table 21; week 4 and 12 PASI prognostic values showing correlations of IL-19 serum levels and PASI in patients (21 ng/L, indicates the upper limit of the normal range of IL-19 in healthy subjects) are presented in Tables 22 and 23, respectively."}, "[3]": {"tested_on": "Ps0 patients", "conditions": "cited from earlier work"}, "[4]": {"conditions": "10 mg subcutaneous every 2 weeks, week 16"}, "[5]": {"conditions": "25 mg subcutaneous every 2 weeks, week 16"}, "[6]": {"conditions": "75 mg subcutaneous every 2 weeks, week 16"}, "[7]": {"conditions": "150 mg subcutaneous every 2 weeks, week 16"}, "[8]": {"conditions": "Q2W, IL-19 at week 4 and PASI at week 12"}, "[9]": {"conditions": "Q2W, IL-19 at week 12 and PASI at week 12"}, "[10]": {"conditions": "Q4W, IL-19 at week 4 and PASI at week 12"}, "[11]": {"conditions": "Q4W, IL-19 at week 12 and PASI at week 12"}}}
{"substance": "ixekizumab", "values": [{"measurement": "IL-19 serum levels (geometric mean)", "setting": "[1]; 10 mg subcutaneous every 2 weeks, Week 0 (baseline)", "value": 111.6, "unit": "pg/mL"}, {"measurement": "IL-19 serum levels (geometric mean)", "setting": "[1]; 10 mg subcutaneous every 2 weeks, Week 2", "value": 45.3, "unit": "pg/mL"}, {"measurement": "number of patients achieving at least PASI 75", "setting": "[1]; 10 mg subcutaneous every 2 weeks, n = 19", "value": 5}, {"measurement": "% of patients with serum IL-19 concentration ≤ 21 pg/mL", "setting": "[1]; [4]", "value": "42.1% (8/19)"}, {"measurement": "% patients with serum IL-19 concentration ≤ 21 pg/mL achieving at least PASI 75", "setting": "[1]; [4]", "value": "62.5% (5/8)"}, {"measurement": "% patients with serum IL-19 concentration ≤ 21 pg/mL not achieving at least PASI 75", "setting": "[1]; [4]", "value": "37.5% (3/8)^"}, {"measurement": "IL-19 serum levels (geometric mean)", "setting": "[1]; [4]", "value": 57.3, "unit": "pg/mL"}, {"measurement": "IL-19 serum levels (geometric mean)", "setting": "[1]; 25 mg subcutaneous every 2 weeks, Week 0 (baseline)", "value": 89.0, "unit": "pg/mL"}, {"measurement": "IL-19 serum levels (geometric mean)", "setting": "[1]; 25 mg subcutaneous every 2 weeks, Week 2", "value": 22.3, "unit": "pg/mL"}, {"measurement": "number of patients achieving at least PASI 75", "setting": "[1]; 25 mg subcutaneous every 2 weeks, n = 20", "value": 16}, {"measurement": "% of patients with serum IL-19 concentration ≤ 21 pg/mL", "setting": "[1]; [5]", "value": "70% (14/20)"}, {"measurement": "% patients with serum IL-19 concentration ≤ 21 pg/mL achieving at least PASI 75", "setting": "[1]; [5]", "value": "92.9% (13/14)"}, {"measurement": "% patients with serum IL-19 concentration ≤ 21 pg/mL not achieving at least PASI 75", "setting": "[1]; [5]", "value": "7.1% (1/14)"}, {"measurement": "IL-19 serum levels (geometric mean)", "setting": "[1]; [5]", "value": 13.6, "unit": "pg/mL"}, {"measurement": "IL-19 serum levels (geometric mean)", "setting": "[1]; 75 mg subcutaneous every 2 weeks, Week 0 (baseline)", "value": 86.7, "unit": "pg/mL"}, {"measurement": "IL-19 serum levels (geometric mean)", "setting": "[1]; 75 mg subcutaneous every 2 weeks, Week 2", "value": 11.6, "unit": "pg/mL"}, {"measurement": "number of patients achieving at least PASI 75", "setting": "[1]; 75 mg subcutaneous every 2 weeks, n = 24", "value": 21}, {"measurement": "% of patients with serum IL-19 concentration ≤ 21 pg/mL", "setting": "[1]; [6]", "value": "91.7% (22/24)^"}, {"measurement": "% patients with serum IL-19 concentration ≤ 21 pg/mL achieving at least PASI 75", "setting": "[1]; [6]", "value": "86.4% (19/22)"}, {"measurement": "% patients with serum IL-19 concentration ≤ 21 pg/mL not achieving at least PASI 75", "setting": "[1]; [6]", "value": "13.6% (3/22)"}, {"measurement": "IL-19 serum levels (geometric mean)", "setting": "[1]; [6]", "value": 9.4, "unit": "pg/mL"}, {"measurement": "IL-19 serum levels (geometric mean)", "setting": "[1]; 150 mg subcutaneous every 2 weeks, Week 0 (baseline)", "value": 87.1, "unit": "pg/mL"}, {"measurement": "IL-19 serum levels (geometric mean)", "setting": "[1]; 150 mg subcutaneous every 2 weeks, Week 2", "value": 13.9, "unit": "pg/mL"}, {"measurement": "number of patients achieving at least PASI 75", "setting": "[1]; 150 mg subcutaneous every 2 weeks, n = 24", "value": 22}, {"measurement": "% of patients with serum IL-19 concentration ≤ 21 pg/mL", "setting": "[1]; [7]", "value": "92% (23/25)"}, {"measurement": "% patients with serum IL-19 concentration ≤ 21 pg/mL achieving at least PASI 75", "setting": "[1]; [7]", "value": "95% (19/20)"}, {"measurement": "% patients with serum IL-19 concentration ≤ 21 pg/mL not achieving at least PASI 75", "setting": "[1]; [7]", "value": "5% (1/20)"}, {"measurement": "IL-19 serum levels (geometric mean)", "setting": "[1]; [7]", "value": 11.9, "unit": "pg/mL"}, {"measurement": "IL-19 (geometric mean) serum levels", "setting": "[2]; Q2W: 160 mg at baseline, then 80 mg every two weeks, Week 0 (baseline)", "value": 23.0, "unit": "pg/mL"}, {"measurement": "IL-19 (geometric mean) serum levels", "setting": "[2]; Q2W: 160 mg at baseline, then 80 mg every two weeks, Week 4", "value": 6.0, "unit": "pg/mL"}, {"measurement": "IL-19 (geometric mean) serum levels", "setting": "[2]; Q2W: 160 mg at baseline, then 80 mg every two weeks, Week 12", "value": 6.1, "unit": "pg/mL"}, {"measurement": "% of patients with serum IL-19 concentration ≤ 21 pg/mL", "setting": "[2]; Q2W, IL-19 at week 4", "value": "97.5% (79/81)"}, {"measurement": "% patients with serum IL-19 concentration ≤ 21 pg/mL achieving at least PASI 75", "setting": "[2]; [8]", "value": "72.2% (57/79)"}, {"measurement": "% patients with serum IL-19 concentration ≤ 21 pg/mL not achieving at least PASI 75", "setting": "[2]; [8]", "value": "27.8% (22/79)"}, {"measurement": "% of patients with serum IL-19 concentration ≤ 21 pg/mL", "setting": "[2]; Q2W, IL-19 at week 12", "value": "96.7% (87/90)"}, {"measurement": "% patients with serum IL-19 concentration ≤ 21 pg/mL achieving at least PASI 75", "setting": "[2]; [9]", "value": "73.1% (57/78)"}, {"measurement": "% patients with serum IL-19 concentration ≤ 21 pg/mL not achieving at least PASI 75", "setting": "[2]; [9]", "value": "26.9% (21/78)"}, {"measurement": "IL-19 (geometric mean) serum levels", "setting": "[2]; Q4W: 160 mg at baseline, then 80 mg every four weeks, Week 0 (baseline)", "value": 31.3, "unit": "pg/mL"}, {"measurement": "IL-19 (geometric mean) serum levels", "setting": "[2]; Q4W: 160 mg at baseline, then 80 mg every four weeks, Week 4", "value": 7.6, "unit": "pg/mL"}, {"measurement": "IL-19 (geometric mean) serum levels", "setting": "[2]; Q4W: 160 mg at baseline, then 80 mg every four weeks, Week 12", "value": 7.3, "unit": "pg/mL"}, {"measurement": "% of patients with serum IL-19 concentration ≤ 21 pg/mL", "setting": "[2]; Q4W, IL-19 at week 4", "value": "90.8% (79/87)"}, {"measurement": "% patients with serum IL-19 concentration ≤ 21 pg/mL achieving at least PASI 75", "setting": "[2]; [10]", "value": "73.4% (58/79)"}, {"measurement": "% patients with serum IL-19 concentration ≤ 21 pg/mL not achieving at least PASI 75", "setting": "[2]; [10]", "value": "26.6% (21/79)"}, {"measurement": "% of patients with serum IL-19 concentration ≤ 21 pg/mL", "setting": "[2]; Q4W, IL-19 at week 12", "value": "93.5% (87/93)"}, {"measurement": "% patients with serum IL-19 concentration ≤ 21 pg/mL achieving at least PASI 75", "setting": "[2]; [11]", "value": "74.1% (60/81)"}, {"measurement": "% patients with serum IL-19 concentration ≤ 21 pg/mL not achieving at least PASI 75", "setting": "[2]; [11]", "value": "25.9% (21/81)"}, {"measurement": "change of serum IL-19 in words", "setting": "[2]; both ixekizumab treatment groups, sustained over the 12 week treatment", "value": "lowering of IL-19 to near normal levels after 4 weeks"}, {"measurement": "patients achieved a 75% reduction in PASI score (PASI 75)", "setting": "[3]", "value": 90, "unit": "%"}]}
